Assay results as given in patent US9615574B2, “Compositions of dibromomalonamide and their use as biocides” (Dow Global Technologies LLC, priority 2013, dated 2017).

How the values were obtained:
[1] = test system: Desulfovibrio longus ATCC 51456; assay: MBC of DBMAL, THPS and blends against anaerobic bacteria, 24 hour contact time; type: cell-based; conditions: alone or in the blend, 40° C., 10^7 to 10^8 CFU/mL
Method: (§1) The synergism of the biocides combination of the present invention was determined using the method described by Kull, F. C, et al. in Applied Microbiology 9:538-541 (1961).
Inside an anaerobic chamber (Bactron anaerobic chamber), a deoxygenated sterile salt solution (3.1183 g of NaCl, 1.3082 mg of NaHCO3, 47.70 mg of KCl, 72.00 mg of CaCl2, 54.49 mg of MgSO4, 172.28 mg of Na2SO4, 43.92 mg of Na2CO3 in 1 L water, pH was adjusted to 7) was inoculated with Desulfovibrio longus ATCC 51456 to a final bacterial concentration of 10^7 to 10^8 CFU/mL. Aliquots of this cell suspension were then treated with DBMAL, THPS, and DBMAL/THPS blends, at selected active concentrations. After the treated cell suspensions were incubated at 40° C. for 24 hours, viable bacteria in each treated and untreated (control) cell suspensions were enumerated using a serial dilution method in Modified Baar's Medium (2.0 g of MgSO4, 5.7 g of Sodium citrate.2H2O, 1.0 g of CaSO4, 1.0 g of NH4Cl, 3.5 g of Sodium lactate, 1.0 g of Yeast extract, 0.5 g of K2HPO4, 0.1 g of Sodium Thioglycolate, 0.02 g of Fe(NH4)2(SO4)2, 20 g of NaCl in 1 L deionized water). The biocidal efficacy was determined by minimum tested biocide concentration for bacteria kill in the aliquots (MBC).
Table 1 summarizes the synergistic effect of each biocide and their blends, and the Synergy Index of each combination.

[2] = test system: Pseudomonas aeruginosa ATCC 10145 and Staphylococcus aureus ATCC 6538; assay: MBC of DBMAL, THPS and blends against aerobic bacteria, 1 hr and 2 hr contact time; type: cell-based; conditions: alone or in the blend; for MBC (ppm active) THPS: THPS concentration; for MBC (ppm active) DBMAL: DBMAL concentration
Method: as §1
Sterile salt solution (0.2203 g of CaCl2, 0.1847 g of MgSO4, and 0.2033 g of NaHCO3 in 1 L water, adjust pH to 7.4) was inoculated with approximately 10^7 CFU/mL of Pseudomonas aeruginosa ATCC 10145 and Staphylococcus aureus ATCC 6538.
Aliquots of the cell suspension were then treated with DBMAL, THPS, and combinations of these actives at selected concentrations.
After incubating at 37° C. for 1 hr, viable bacteria in each treated and untreated (control) cell suspensions were enumerated using a serial dilution method in Tryptic Soy Broth. The biocidal efficacy was determined by minimum biocide concentration for bacteria kill in the aliquots (MBC). Synergy Index was then calculated. Table 2 summarizes the MBC of each biocide and their blends, and the Synergy Index of each combination.
The same test procedure in Example 2 was used to evaluate the biocidal efficacy of DBMAL, THPS and their blends against aerobic bacteria in a 2-hr contact assay. Table 3 summarizes the MBC of each biocide and their blends, and the Synergy Index of each combination.

Compound	MBC (ppm active) THPS ([1]; THPS concentration) [ppm active]	MBC (ppm active) THPS ([2]; 2-hr contact assay) [ppm active]	MBC (ppm active) THPS ([2]; 37° C., 1 hr contact time) [ppm active]	MBC (ppm active) DBMAL ([1]; DBMAL concentration) [ppm active]	MBC (ppm active) DBMAL ([2]; 2-hr contact assay) [ppm active]	MBC (ppm active) DBMAL ([2]; 37° C., 1 hr contact time) [ppm active]
tetrakis(hydroxymethyl)phosphonium sulfate [0:1]	50.0	29.6	100.0	–	–	–
NC(=O)C(Br)(Br)C(N)=O [1:0, 2,2-dibromomalonamide]	–	–	–	200.0	77.8	>100.0
